Data as given in the supplement of paper PMC10307832.

Assays:
Experiment in all cases: relative viability (nuclei count vs DMSO), 5 days (fraction); higher = more cells survive
ABC-1 = system: ABC-1
Method in brief: (§1)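 Relative viability was taken as the ratio of nuclei in treated wells to nuclei in vehicle wells. Lung cancer cell lines in 1536-well plates received compounds by pin tool one day after seeding, either one drug alone or a fixed anchor-drug dose plus five library-drug doses (not always all listed) in √10 steps. Nuclei were counted on 4× images after 5 days of treatment, and values are medians of duplicate plates.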

COR-L23 = system: COR-L23
Method in brief: as §1

ChaGo-K-1 = system: ChaGo-K-1
Method in brief: as §1

EMC-BAC-2 = system: EMC-BAC-2
Method in brief: as §1

HARA = system: HARA
Method in brief: as §1

HCC-15 = system: HCC-15
Method in brief: as §1

HCC-366 = system: HCC-366
Method in brief: as §1

HCC-78 = system: HCC-78
Method in brief: as §1

HOP-62 = system: HOP-62
Method in brief: as §1

LC-2-ad = system: LC-2-ad
Method in brief: as §1

NCI-H1395 = system: NCI-H1395
Method in brief: as §1

## Cc1sc2c(c1C)C(c1ccc(Cl)cc1)=N[C@@H](CC(=O)OC(C)(C)C)c1nnc(C)n1-2 [JQ1] + O=C(c1cc(Cc2n[nH]c(=O)c3ccccc23)ccc1F)N1CCN(C(=O)C2CC2)CC1 [Olaparib] (partner 8 µM)
ABC-1; first compound 0.04 µM
  relative viability: 0.772
ABC-1; first compound 0.1265 µM
  relative viability: 0.575
ABC-1; first compound 0.4 µM
  relative viability: 0.744
ABC-1; first compound 1.265 µM
  relative viability: 0.748
ABC-1; first compound 4 µM
  relative viability: 0.385
COR-L23; first compound 0.04 µM
  relative viability: 0.357
COR-L23; first compound 0.1265 µM
  relative viability: 0.229
COR-L23; first compound 0.4 µM
  relative viability: 0.295
COR-L23; first compound 1.265 µM
  relative viability: 0.11
COR-L23; first compound 4 µM
  relative viability: 0.136
ChaGo-K-1; first compound 0.04 µM
  relative viability: 0.392
ChaGo-K-1; first compound 0.1265 µM
  relative viability: 0.37
ChaGo-K-1; first compound 0.4 µM
  relative viability: 0.29
ChaGo-K-1; first compound 1.265 µM
  relative viability: 0.239
ChaGo-K-1; first compound 4 µM
  relative viability: 0.214
EMC-BAC-2; first compound 0.04 µM
  relative viability: 0.447
EMC-BAC-2; first compound 0.1265 µM
  relative viability: 0.433
EMC-BAC-2; first compound 0.4 µM
  relative viability: 0.391
EMC-BAC-2; first compound 1.265 µM
  relative viability: 0.32
EMC-BAC-2; first compound 4 µM
  relative viability: 0.259
HARA; first compound 0.04 µM
  relative viability: 0.739
HARA; first compound 0.1265 µM
  relative viability: 0.484
HARA; first compound 0.4 µM
  relative viability: 0.321
HARA; first compound 1.265 µM
  relative viability: 0.308
HARA; first compound 4 µM
  relative viability: 0.18
HCC-15; first compound 0.04 µM
  relative viability: 0.528
HCC-15; first compound 0.1265 µM
  relative viability: 0.641
HCC-15; first compound 0.4 µM
  relative viability: 0.693
HCC-15; first compound 1.265 µM
  relative viability: 0.58
HCC-15; first compound 4 µM
  relative viability: 0.392
HCC-366; first compound 0.04 µM
  relative viability: 0.349
HCC-366; first compound 0.4 µM
  relative viability: 0.197
HCC-366; first compound 1.265 µM
  relative viability: 0.102
HCC-366; first compound 4 µM
  relative viability: 0.0747
HCC-78; first compound 0.04 µM
  relative viability: 0.7
HCC-78; first compound 0.1265 µM
  relative viability: 0.693
HCC-78; first compound 0.4 µM
  relative viability: 0.807
HCC-78; first compound 1.265 µM
  relative viability: 0.581
HCC-78; first compound 4 µM
  relative viability: 0.494
HOP-62; first compound 0.04 µM
  relative viability: 0.306
HOP-62; first compound 0.1265 µM
  relative viability: 0.285
HOP-62; first compound 0.4 µM
  relative viability: 0.18
HOP-62; first compound 1.265 µM
  relative viability: 0.114
HOP-62; first compound 4 µM
  relative viability: 0.115
LC-2-ad; first compound 0.04 µM
  relative viability: 0.701
LC-2-ad; first compound 0.1265 µM
  relative viability: 0.599
LC-2-ad; first compound 0.4 µM
  relative viability: 0.332
LC-2-ad; first compound 1.265 µM
  relative viability: 0.256
LC-2-ad; first compound 4 µM
  relative viability: 0.256
NCI-H1395; first compound 0.04 µM
  relative viability: 0.489
NCI-H1395; first compound 0.1265 µM
  relative viability: 0.452
NCI-H1395; first compound 0.4 µM
  relative viability: 0.449
NCI-H1395; first compound 1.265 µM
  relative viability: 0.378
NCI-H1395; first compound 4 µM
  relative viability: 0.356
